Here are results for 11 compounds from US12502362B2, “Inhibitors of nucleotidyltransferase superfamily enzymes as antibiotics” (priority 2017, dated 2025).

As a reminder, the CC50 is the concentration at which the toxic effect on the cells reaches its halfway point. Low values mean greater toxicity to the cells, high ones lower toxicity to the cells.

The subject of one data set is S. aureus (ATCC 29213). Kind of data set: MIC80 on S. aureus. The data set is classed as cell-based, Staphylococcus aureus. As to conditions: ≥80% growth inhibition; for MIC80 S. aureus: S. aureus ATCC 29213 (MSSA); for MIC80: Staphylococcus aureus, ATCC 29213 / MSSA, read-out: MIC80 S. aureus, S. aureus ATCC 29213 (MSSA). The procedure:
(§1) To further characterize the compounds, the minimal inhibitory concentration (MIC80) were determined for selected compounds. MIC80 is defined as the compound concentration at which ≥80% bacterial growth is inhibited compare to untreated controls. Meanwhile, for the selected compounds, cytotoxicity assays (CC50) were performed on a HepG2-derived hepatoblastoma cell line (HEPDES19). […] For CC50 evaluation, soluble tetrazolium dye (MTS) was used to measure mitochondrial toxicity in a human hepatoblastoma cell line (18). The bacteria (E. coli, S. saprophyticus and A. baumannii) used in MIC80 measurements were the same as that in the primary screening, but for Staphylococcus, S. aureus is used primarily because it is a common pathogen in Staphylococcaeae family, while S. saprophyticus is part of the normal human flora.

In the next data set the test system is E. coli (ATCC 35218). As to the kind of experiment: microbe, parasite or virus in culture. The data set is classed as cell-based. As to conditions: for MIC80 E. coli: E. coli ATCC 35218; for MIC80: Escherichia coli, ATCC35218, read-out: MIC80 E. coli, E. coli ATCC 35218. The procedure:
as §1

The subject of data set [1] is HepG2-derived hepatoblastoma cell line (HEPDES19). Kind of data set: Cytotoxicity assay (CC50), MTS. The data set is classed as cell-based, human. Particulars: HEPDES19 cells. The procedure: as §1
Data set [2] can be described thus: Cytotoxicity assay (CC50), MTS. Particulars: human, HepG2-derived hepatoblastoma cell line (HEPDES19), HEPDES19 cells. The data set is classed as cell-based, human. Here is the method:
as §1

Data set [3] deals with S. aureus and/or S. saprophyticus. As to the kind of experiment: MIC80 on S. aureus and/or S. saprophyticus. The data set is classed as cell-based. As to conditions: read-out: MIC80 against S. aureus and/or S. saprophyticus. The procedure:
as §1, with “(HEPDES19). […] For the MIC80 measurements, a 1.5 fold dilution series of the compounds was prepared in Mueller-Hinton II broth.” for “(HEPDES19).”, “flora. S. aureus (ATCC 29213) is methicillin-sensitive Staphylococcus aureus (MSSA) strain and it was used as a model strain to measure the MIC80.” for “flora.”

The subject of data set [4] is S. aureus ATCC strains and MRSA. The data set is classed as cell-based, Staphylococcus aureus.
Data set [5] has as its system Staphylococcus epidermidis. The data set is classed as cell-based. Here is the method:
(§2) It was also tested whether compounds #63 and #285 can inhibit other coagulase-negative Staphylococcus (CNS) including S. epidermidis, S. hominis, etc. […].

The test system of the next data set is Staphylococcus hominis. The data set is classed as cell-based. Here is the method:
as §2

The test system of data set [6] is Coagulase negative Staphylococcus. Kind of data set: Antibiotic susceptibility of coagulase negative Staphylococcus strains. The data set is classed as cell-based.
Where [7] appears, read: Se1 (Staphylococcus epidermidis).
Where [8] appears, read: Se2 (Staphylococcus epidermidis).
[9] abbreviates: Se3 (Staphylococcus epidermidis).
The mark [10] stands for this setting: Se4 (Staphylococcus epidermidis).
The mark [11] stands for this setting: Se5 (Staphylococcus epidermidis).
Setting [12] is: CNS1 (Coagulase negative Staphylococcus).
[13] abbreviates: CNS2 (Coagulase negative Staphylococcus).

≈ marks a conversion by molar mass, not a printed value. Like-named read-outs stand apart in the source and are kept apart here. Some results are limits rather than exact numbers.

Regarding `Cc1ccc(S(=O)(=O)Oc2cc(C(C)C)cccc2=O)cc1` [Compound 688], the “MIC80 S. aureus” value against S. aureus (ATCC 29213) was found to be 11.6 µM (≈ 3.69 µg/mL). Also, in the data set with E. coli (ATCC 35218), the “MIC80 E. coli” value was greater than 100 µM. Further, it took 27.5 µM to reach half-maximal cytotoxicity in data set [1] (CC50).

As to `CC(=O)c1c(C)cc(O)c(=O)c(O)c1-c1ccc2ccccc2c1` [Compound 332], in the data set with S. aureus (ATCC 29213), the “MIC80 S. aureus” value turned out to be 19.8 µM (≈ 6.34 µg/mL). In [1], the midpoint of cytotoxicity, the CC50, lay at 38 µM.

With `Cc1cccc(C(=O)Oc2cccccc2=O)c1` [Compound 283], the MIC80 in the data set on S. aureus (ATCC 29213) is 15.4 µM (≈ 3.7 µg/mL); in the data set on E. coli (ATCC 35218), greater than 100 µM; in data set [3], less than 20 µM. The CC50 was greater than 50 µM in [2] and no less than 100 µM in data set [1].

Regarding `O=C(Oc1cccccc1=O)c1cccc(Cl)c1` [Compound 282], the MIC80 in the data set on S. aureus (ATCC 29213) was 18.2 µM (≈ 4.74 µg/mL); with E. coli (ATCC 35218), greater than 100 µM; in [3], less than 20 µM. The compound further yielded a CC50 in [2] greater than 50 µM.

As for `COc1c(N2C[C@@H]3CCCN[C@@H]3C2)c(F)cc2c(=O)c(C(=O)O)cn(C3CC3)c12` [MXF, moxifloxacin], the Antibiotic susceptibility result was “S” in [4] (S. aureus ATCC 25923); “S” in data set [4] (S. aureus ATCC 29213); “S” in [4] (S. aureus ATCC BAA 976); “S” in data set [4] (S. aureus ATCC BAA 977); “I” in [4] (S. aureus ATCC BAA 1026); “R” in [4] (Sa1 (MRSA)). Further, the Antibiotic susceptibility result in data set [4] (Sa2 (MRSA)) was “I”; in data set [4] (Sa3 (MRSA)), “I”; in data set [4] (Sa5 (MRSA)), “R”; in [4] (Sa6 (MRSA)), “R”; in [4] (Sa7 (MRSA)) it was “S”; in data set [4] (Sa8 (MRSA)), “R”. Besides, the Antibiotic susceptibility result was “R” in data set [4] (Sa9 (MRSA)); “R” in [4] (Sa10 (MRSA)); “R” in data set [4] (Sa11 (MRSA)); “I” in [4] (Sa12 (MRSA)); “I” in [4] (Sa14 (MRSA)); “R” in data set [4] (Sa15 (MRSA)). The Antibiotic susceptibility entry is given as “I” in [4] (Sa16 (MRSA)); “R” in data set [4] (Sa17 (MRSA)); “I” in data set [4] (Sa18 (MRSA)); “S” in data set [4] (Sa19 (MRSA)); “I” in data set [4] (Sa20 (MRSA)); “S” in [4] (Sa21 (MRSA)). Besides, the Antibiotic susceptibility result in data set [4] (Sa22 (MRSA)) is on record as “S”; in data set [4] (Sa23 (MRSA)) it was “S”; in data set [5] (setting [7]), “R”; in [5] (setting [8]), “S”; in data set [5] (setting [9]) it was “R”; in data set [5] (setting [10]), “R”. Besides, the Antibiotic susceptibility result in data set [5] (setting [11]) is “R”; with Staphylococcus hominis (Sh1 (Staphylococcus hominis)) it was “R”; with Staphylococcus hominis (Sh2 (Staphylococcus hominis)) it was “S”; in the data set with Staphylococcus hominis (Sh3 (Staphylococcus hominis)) it was “S”; in data set [6] (setting [12]), “S”; in data set [6] (setting [13]), “R”.

Consider `O=C(Sc1cccccc1=O)c1ccc(C(F)(F)F)cc1` [Compound 682], for which, in the data set with S. aureus (ATCC 29213), the “MIC80 S. aureus” value stood at 19.8 µM (≈ 6.14 µg/mL). In the data set on E. coli (ATCC 35218), the “MIC80 E. coli” value is 66.7 µM (≈ 20.7 µg/mL). The compound further registered a CC50 in data set [1] of 82.9 µM.

Regarding `CCCCCCCCCC(=O)N[C@@H](Cc1c[nH]c2ccccc12)C(=O)N[C@H](CC(N)=O)C(=O)N[C@@H](CC(=O)O)C(=O)N[C@@H]1C(=O)NCC(=O)N[C@@H](CCCN)C(=O)N[C@@H](CC(=O)O)C(=O)N[C@H](C)C(=O)N[C@@H](CC(=O)O)C(=O)NCC(=O)N[C@H](CO)C(=O)N[C@@H]([C@H](C)CC(=O)O)C(=O)N[C@@H](CC(=O)c2ccccc2N)C(=O)O[C@@H]1C` [DAP, daptomycin], the Antibiotic susceptibility entry in data set [4] (S. aureus ATCC 25923), in [4] (S. aureus ATCC 29213), in [4] (S. aureus ATCC BAA 976), in data set [4] (S. aureus ATCC BAA 977), in data set [4] (S. aureus ATCC BAA 1026) and in data set [4] (Sa1 (MRSA)) was “S” in each case. In addition, the Antibiotic susceptibility result in data set [4] (Sa2 (MRSA)), in data set [4] (Sa3 (MRSA)), in data set [4] (Sa6 (MRSA)), in [4] (Sa7 (MRSA)), in [4] (Sa9 (MRSA)) and in data set [4] (Sa11 (MRSA)) was “S” throughout. Moreover, the Antibiotic susceptibility entry in [4] (Sa12 (MRSA)), in data set [4] (Sa15 (MRSA)), in data set [4] (Sa16 (MRSA)), in [4] (Sa17 (MRSA)), in data set [4] (Sa18 (MRSA)) and in data set [4] (Sa19 (MRSA)) was “S” each time. The Antibiotic susceptibility entry in data set [4] (Sa20 (MRSA)), in [4] (Sa21 (MRSA)), in data set [4] (Sa22 (MRSA)), in data set [4] (Sa23 (MRSA)), in [5] (setting [7]) and in data set [5] (setting [8]) was “S” in each case. Moreover, the Antibiotic susceptibility result (in [5] (setting [9]); in [5] (setting [10]); in data set [5] (setting [11]); with Staphylococcus hominis (Sh1 (Staphylococcus hominis)); in the data set on Staphylococcus hominis (Sh2 (Staphylococcus hominis)); in the data set on Staphylococcus hominis (Sh3 (Staphylococcus hominis))) was “S” throughout. Further, the Antibiotic susceptibility entry in data set [6] (setting [12]) and in [6] (setting [13]) was “S” throughout.

`C[C@H]1c2cccc(O)c2C(=O)C2=C(O)[C@]3(O)C(=O)C(C(N)=O)=C(O)[C@@H](N(C)C)[C@@H]3[C@@H](O)[C@@H]21` [DOX, doxycycline]: the Antibiotic susceptibility entry in [4] (S. aureus ATCC 25923), in data set [4] (S. aureus ATCC 29213), in data set [4] (S. aureus ATCC BAA 976), in [4] (S. aureus ATCC BAA 977), in [4] (S. aureus ATCC BAA 1026) and in data set [4] (Sa1 (MRSA)) was “S” throughout. Further, the Antibiotic susceptibility entry in data set [4] (Sa2 (MRSA)), in [4] (Sa3 (MRSA)), in [4] (Sa6 (MRSA)), in [4] (Sa7 (MRSA)), in data set [4] (Sa9 (MRSA)) and in data set [4] (Sa11 (MRSA)) was “S” each time. Further, the Antibiotic susceptibility entry in data set [4] (Sa12 (MRSA)), in data set [4] (Sa14 (MRSA)), in data set [4] (Sa15 (MRSA)), in [4] (Sa16 (MRSA)), in [4] (Sa17 (MRSA)) and in data set [4] (Sa18 (MRSA)) was “S” throughout. Moreover, the Antibiotic susceptibility result in [4] (Sa19 (MRSA)), in [4] (Sa20 (MRSA)), in data set [4] (Sa21 (MRSA)), in data set [4] (Sa22 (MRSA)), in data set [4] (Sa23 (MRSA)) and in [5] (setting [7]) was “S” in each case. Also, the Antibiotic susceptibility entry was “S” in [5] (setting [8]); “S” in [5] (setting [9]); “S” in [5] (setting [10]); “S” in data set [5] (setting [11]); “S” in the data set on Staphylococcus hominis (Sh1 (Staphylococcus hominis)); “R” with Staphylococcus hominis (Sh2 (Staphylococcus hominis)). Besides, the Antibiotic susceptibility result (with Staphylococcus hominis (Sh3 (Staphylococcus hominis)); in [6] (setting [12]); in data set [6] (setting [13])) was “S” in each case.

As for `Cc1cc(O)c(=O)c(O)cc1-c1ccc(Br)cc1` [Compound 114], the figures for the MIC80 (in the data set with S. aureus (ATCC 29213); in data set [3]) were 19.8 µM (≈ 6.08 µg/mL) and less than 20 µM, respectively. Besides, the CC50 in [2] is less than 50 µM; in data set [1], 38 µM.

Consider `O=C(Cc1ccccc1)Sc1cccccc1=O` [Compound 680], for which, in the data set with S. aureus (ATCC 29213), the “MIC80 S. aureus” value worked out at 29.6 µM (≈ 7.59 µg/mL). Also, the “MIC80 E. coli” value in the data set with E. coli (ATCC 35218) amounted to 19.8 µM (≈ 5.08 µg/mL). This compound displayed a cytotoxic concentration (CC50) in data set [1] greater than 100 µM.

Take `O=C(O)c1cn(Cc2cccc3ccccc23)c2ccccc2c1=O` [Compound 432]: the MIC80 is 13.2 µM (≈ 4.35 µg/mL) with S. aureus (ATCC 29213) and less than 20 µM in data set [3].
